Consider one compound from patent US20170298056A1, “SMALL MOLECULE INHIBITORS OF HIV-1 ENTRY AND METHODS OF USE THEREOF” (Dana-Farber Cancer Institute, Inc., priority 2014, published 2017).

Where two headings read alike, the source gives them in different places.

The test system of assay [1] is amphotropic murine leukemia virus (A-MLV). The assay can be described thus: Viral infection assay, control virus with A-MLV envelope. In kind it is cell-based. Here is the method:
Production of recombinant HIV-1 expressing luciferase. […] After 48 hours, the supernatant was collected, buffered with 50 mM Hepes pH 7.4 (final concentration) and centrifuged for 5 minutes at 750×g and 4° C. The virus-containing supernatant was used directly or frozen at −80° C.
Viral infection assay. Each test compound was serially diluted in DMSO in a 96-well B&W isoplate (PerkinElmer, Boston, Mass.) using an HP D300 Digital Dispenser, to a final volume of 450 nl. DMSO was used as a control. Viruses pseudotyped with a specific Env were added to each well and incubated briefly at room temperature. Cf2Th-CD4/CCR5 cells were detached with StemPro Accutase Cell Dissociation Reagent (Invitrogen, cat #A11105-01), washed once, and 5000 cells were added to each well. […] Following incubation, the medium was aspirated and cells were lysed with 30 μl of Passive Lysis Buffer (Promega, cat #E1941). The activity of the firefly luciferase, which was used as a reporter protein in the system, was measured with a Centro LB 960 luminometer (Berthold Technologies, Oak Ridge, Tenn.). One hundred microliters of assay buffer (15 mM MgSO4, 15 mM KH2PO4/K2HPO4 pH 7.8, 1 mM ATP and 1 mM DTT) was injected to each well, followed by a 50 μl injection of 1 mM Dluciferin potassium salt (BD Pharmingen, San Jose, Calif.); luminescence was measured for 2 sec. Infection of PBMC was done as above, but 20,000-40,000 cells/well and viruses concentrated by ultracentrifugation were used. After four hours of incubation with viruses, the cells were centrifuged at 200×g for 6 minutes at 4° C., resuspended in 100 μl RPMI-PBMC medium and incubated at 37° C. for an additional 36-40 hours (total 40-44 hours). Supernatant was removed after centrifugation at 400×g for 5 minutes and cells were processed to detect luciferase activity, as described above.
The effect of 18A on viral infection was tested using recombinant HIV-1 pseudotyped with the envelope glycoproteins of different primate immunodeficiency viruses or the amphotropic murine leukemia virus (A-MLV) as a control.

Assay [2] has as its system HIV-1JR-FL E168K+N188AΔCT Env trimer. The assay can be described thus: PG9 antibody binding to cell-surface Env trimer (flow cytometry). Here is the method: Flow cytometry. […] After 48-72 hours, cells were detached with 5 mM EDTA/PBS and between 0.5-1 million cells were briefly incubated with various concentrations of 18A and then with or without the indicated concentrations of sCD4. C34-Ig (at a final concentration of 20 μg/ml) or a specified antibody (at final concentration of 1 μg/ml) was added to the cells. […] Cells were washed twice and analyzed with a BD FACSCanto II flow cytometer (BD Biosciences). For analysis of resistant mutants (FIG. 5e-g), the measurements were normalized for the level of sCD4 binding of each mutant, and the response of each mutant was further normalized to that of the wild-type HIV-1JR-FL E168K+N188AΔCT Env (herein designated WTKA). […] The sCD4 IC50/sCD4 binding ratio (FIGS. 4c and e) was calculated as follows. Binding of sCD4 to different envelope mutants was measured by flow cytometry and normalized first to 2G12 binding to account for potentially different Env expression levels, and then to sCD4 binding to the wild-type HIV-1JR-FL Env. The IC50 of sCD4 for inhibition of virus infection by each mutant Env was divided by the normalized sCD4 binding to Env-expressing cells to calculate the sCD4 IC50/sCD4 binding value.
On the technique in general: A flow cytometer gives signals particle by particle.

On to `O=C(N/N=C/c1ccc(O)cc1)Nc1cccc2nsnc12` [Compound 18A], for which the IC50 (as a rule, the concentration at which inhibition is half-maximal) in assay [1] (Cf2Th-CD4/CCR5 cells, read-out: IC50 for the control A-MLV) came to 56 µM; in assay [1] (Example 8 table, read-out: IC50 (A-MLV)), 56.5 µM. Further, in assay [2] (18A added prior to sCD4 incubation, 37.6% without sCD4, 6.6% with sCD4 alone), the PG9 binding came out at 24.1%. Moreover, the “basal level of PG9 binding” value in assay [2] (absence of sCD4) was “did not affect”.
